From patent US12227496B2 (BRISTOL-MYERS SQUIBB COMPANY, priority 2019, dated 2025) come the findings set out here.

This experiment concerns the target T1, human FXR (Homo sapiens, UniProt Q96RI1).
T1 construct: expressed in transfected cells; host or cells: HEK293 cells stably carrying a 5xGal4-response-element firefly luciferase reporter, transiently transfected with pcDNA3.1-Gal4-FXR
T1 sequence (Q96RI1 262-486 limits assumed): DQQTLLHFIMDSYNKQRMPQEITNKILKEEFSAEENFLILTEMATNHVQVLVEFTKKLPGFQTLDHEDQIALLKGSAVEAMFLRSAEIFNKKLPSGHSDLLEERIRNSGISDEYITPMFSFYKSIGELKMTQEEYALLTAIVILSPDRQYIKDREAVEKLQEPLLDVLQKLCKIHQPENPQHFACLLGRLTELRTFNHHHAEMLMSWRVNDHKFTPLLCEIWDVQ
In words: transient human FXR/Gal4-luciferase reporter assay. To be noted: Gal4-hFXR LBD fusion, luciferase reporter in HEK293 cells; response relative to 8 μM GW-4064. Format: cell-based. The procedure: A Gal4-hFXR fusion construct reporter system was used as the primary assay to characterize compound activity. A construct including 5 copies of the Gal4 promoter response element upstream of a firefly luciferase reporter cDNA was stably expressed in HEK293 cells. This reporter cell line was maintained in Dulbecco's Modified Eagle's medium (DMEM; Gibco) supplemented with 1% penicillin-streptomycin (P/S) solution, 500 μg/mL Zeocin and 10% charcoal/dextran-treated fetal bovine serum (cs-FBS) at 37° C. in a humidified 5% CO2 atmosphere. […] The day prior to transfection, the reporter cells in culture are detached from the plate with trypsin and plated into a T75 flask at a sufficient density to achieve approximately 90% confluence the next morning. […] The mixture is further diluted with 10 mL of a solution comprised of DMEM, 10% cs-FBS, and 1% P/S immediately prior to transferring to the cells. The maintenance culture media is aspirated from the cells and the final transfection mixture is added before the cells are incubated overnight at 37° C. in a humidified 5% CO2 atmosphere. This protocol can be scaled up, and the transiently transfected cells can be cryopreserved in an assay-ready format. For compound testing, 100 nL of the compounds (serial dilutions in DMSO) are dispensed with an Echo acoustic dispenser (Labcyte) into the wells of a Corning/Costar clear bottom 384-well white plate. The transfected cells are harvested, counted, and diluted such that 10-25,000 cells in 25 μL are plated into each well of the 384-well compound assay plate. The compound-treated cells are incubated overnight at 37° C. in a humidified 5% CO2 atmosphere. The next morning 25 μL of Steady-Glo (Promega) are added to each well of the plate, the mixture is incubated for 15 min. with shaking, and luminescence is measured on an Envision (Perkin Elmer) plate reader.
Usually EC50 stands for the concentration at which the effect is half-maximal. With `O=C(C1CCCOC1)N(CC12CCC(c3nc(C4CC4)no3)(CC1)CC2)c1cccc(-c2nc(C3CC3)no2)c1` (racemic) [Example 16, N-((4-(3-cyclopropyl-1,2,4-oxadiazol-5-yl)bicyclo[2.2.2]octan-1-yl)methyl)-N-(3-(3-cyclopropyl-1,2,4-oxadiazol-5-yl)phenyl)tetrahydro-2H-pyran-3-carboxamide], the half-maximal effective concentration (EC50) worked out at 0.226 µM. The figure for `O=C(C1CCCOC1)N(CC12CCC(c3nc(C4CC4)no3)(CC1)CC2)c1cccc(-c2cnc(C3CC3)o2)c1` (racemic) [Example 25, N-((4-(3-cyclopropyl-1,2,4-oxadiazol-5-yl)bicyclo[2.2.2]octan-1-yl)methyl)-N-(3-(2-cyclopropyloxazol-5-yl)phenyl)tetrahydro-2H-pyran-3-carboxamide] is 0.074 µM. With `CCCc1ncc(-c2cccc(N(CC34CCC(c5nc(C6CC6)no5)(CC3)CC4)C(=O)C3CCCOC3)c2)o1` (racemic) [Example 30, N-((4-(3-cyclopropyl-1,2,4-oxadiazol-5-yl)bicyclo[2.2.2]octan-1-yl)methyl)-N-(3-(2-propyloxazol-5-yl)phenyl)tetrahydro-2H-pyran-3-carboxamide] the figure was 0.145 µM; with `CCn1cc(-c2cccc(N(CC34CCC(c5nc(C6CC6)no5)(CC3)CC4)C(=O)C3CCCOC3)c2)oc1=O` (racemic) [Example 52, N-((4-(3-cyclopropyl-1,2,4-oxadiazol-5-yl)bicyclo[2.2.2]octan-1-yl)methyl)-N-(3-(3-ethyl-2-oxo-2,3-dihydrooxazol-5-yl)phenyl)tetrahydro-2H-pyran-3-carboxamide], 1.33 µM; with `O=C(C1CCCOC1)N(CC12CCC(c3nc(C4CC4)no3)(CC1)CC2)c1cccc(-c2nnc(C3CC3)o2)c1` (racemic) [Example 55, N-((4-(3-cyclopropyl-1,2,4-oxadiazol-5-yl)bicyclo[2.2.2]octan-1-yl)methyl)-N-(3-(5-cyclopropyl-1,3,4-oxadiazol-2-yl)phenyl)tetrahydro-2H-pyran-3-carboxamide], 0.929 µM.

For the compound `CC1(C)CCCN(C(=O)N(CC23CCC(c4nc(C5CC5)no4)(CC2)CC3)c2cccc(-c3nc(C4CC4)no3)c2)C1` (racemic) [Example 62, N-((4-(3-cyclopropyl-1,2,4-oxadiazol-5-yl)bicyclo[2.2.2]octan-1-yl)methyl)-N-(3-(3-cyclopropyl-1,2,4-oxadiazol-5-yl)phenyl)-3,3-dimethylpiperidine-1-carboxamide], the EC50 came to 3.81 µM.

The compound `O=C(N1CCCC(CO)C1)N(CC12CCC(c3nc(C4CC4)no3)(CC1)CC2)c1cccc(-c2nc(C3CC3)no2)c1` (racemic) [Example 65, N-((4-(3-cyclopropyl-1,2,4-oxadiazol-5-yl)bicyclo[2.2.2]octan-1-yl)methyl)-N-(3-(3-cyclopropyl-1,2,4-oxadiazol-5-yl)phenyl)-3-(hydroxymethyl)piperidine-1-carboxamide] gave an EC50 of 0.74 µM. As to `O=C(C1CCCOC1)N(CC12CCC(c3nc(C4CC4)cs3)(CC1)CC2)c1cccc(-c2nc(C3CC3)no2)c1` (racemic) [Example 66, N-(3-(3-cyclopropyl-1,2,4-oxadiazol-5-yl)phenyl)-N-((4-(4-cyclopropylthiazol-2-yl)bicyclo[2.2.2]octan-1-yl)methyl)tetrahydro-2H-pyran-3-carboxamide], a half-maximal effect (EC50) was put at 1.25 µM. As for `Cn1nc(C23CCC(CN(C(=O)C4CCCOC4)c4cccc(-c5nc(C6CC6)no5)c4)(CC2)CC3)cc1C1CC1` (racemic) [Example 67, N-(3-(3-cyclopropyl-1,2,4-oxadiazol-5-yl)phenyl)-N-((4-(5-cyclopropyl-1-methyl-1H-pyrazol-3-yl)bicyclo[2.2.2]octan-1-yl)methyl)tetrahydro-2H-pyran-3-carboxamide], the response was half-maximal at 0.256 µM (EC50). With `Cn1cc(-c2cccc(N(CC34CCC(c5nc(C6CC6)no5)(CC3)CC4)C(=O)C3CCCOC3)c2)nc1C1CC1` (racemic) [Example 68, N-((4-(3-cyclopropyl-1,2,4-oxadiazol-5-yl)bicyclo[2.2.2]octan-1-yl)methyl)-N-(3-(2-cyclopropyl-1-methyl-1H-imidazol-4-yl)phenyl)tetrahydro-2H-pyran-3-carboxamide] the figure was 4.1 µM; with `O=C(C1CCCOC1)N(CC12CCC(c3nc(C4CC4)no3)(CC1)CC2)c1cccc(-c2nc3cc(F)ccc3o2)c1` (racemic) [Example 92, N-((4-(3-cyclopropyl-1,2,4-oxadiazol-5-yl)bicyclo[2.2.2]octan-1-yl)methyl)-N-(3-(5-fluorobenzo[d]oxazol-2-yl)phenyl)tetrahydro-2H-pyran-3-carboxamide], 0.589 µM; with `CCc1noc(-c2cccc(N(C(=O)C3CCCCC3)C(C)C34CCC(c5nc(C)no5)(CC3)CC4)c2)n1` (single isomer, unassigned) [Example 70, N-(3-(3-ethyl-1,2,4-oxadiazol-5-yl)phenyl)-N-(1-(4-(3-methyl-1,2,4-oxadiazol-5-yl)bicyclo[2.2.2]octan-1-yl)ethyl)cyclohexanecarboxamide], 1.5 µM.

`CCc1noc(-c2cccc(N(C(=O)C3CCCCC3)C(C)C34CCC(c5nc(C)no5)(CC3)CC4)c2)n1` (single isomer, unassigned) [Example 71, N-(3-(3-ethyl-1,2,4-oxadiazol-5-yl)phenyl)-N-(1-(4-(3-methyl-1,2,4-oxadiazol-5-yl)bicyclo[2.2.2]octan-1-yl)ethyl)cyclohexanecarboxamide] registered an EC50 of 0.547 µM.

Compound `COc1cccc(-c2cccc(N(C(=O)C3CCCCC3)C(C)C34CCC(c5nc(C)no5)(CC3)CC4)c2)c1` (single isomer, unassigned) [Example 94, N-(3′-methoxy-[1,1′-biphenyl]-3-yl)-N-(1-(4-(3-methyl-1,2,4-oxadiazol-5-yl)bicyclo[2.2.2]octan-1-yl)ethyl)cyclohexanecarboxamide] had a concentration for a half-maximal effect (EC50) of 3.94 µM. Turning to `COc1cccc(-c2cccc(N(C(=O)C3CCCCC3)C(C)C34CCC(c5nc(C)no5)(CC3)CC4)c2)c1` (single isomer, unassigned) [Example 95, N-(3′-methoxy-[1,1′-biphenyl]-3-yl)-N-(1-(4-(3-methyl-1,2,4-oxadiazol-5-yl)bicyclo[2.2.2]octan-1-yl)ethyl)cyclohexanecarboxamide], a half-maximal response (EC50) required 6.67 µM. The figure for `COC(=O)C1CC1c1cccc(N(CC23CCC(c4nc(C)no4)(CC2)CC3)C(=O)C2CCCCC2)c1` (single isomer, unassigned) [Example 101, Methyl 2-(3-(N-((4-(3-methyl-1,2,4-oxadiazol-5-yl)bicyclo[2.2.2]octan-1-yl)methyl)cyclohexanecarboxamido)phenyl)cyclopropane-1-carboxylate] is 0.245 µM; for `COC(=O)C1CC1c1cccc(N(CC23CCC(c4nc(C)no4)(CC2)CC3)C(=O)C2CCCCC2)c1` (single isomer, unassigned) [Example 102, Methyl 2-(3-(N-((4-(3-methyl-1,2,4-oxadiazol-5-yl)bicyclo[2.2.2]octan-1-yl)methyl)cyclohexanecarboxamido)phenyl)cyclopropane-1-carboxylate] it is 0.518 µM; for `CCOc1ccc(-c2cccc(N(CC34CCC(c5nc(C(C)(C)C)no5)(CC3)CC4)C(=O)C3CCC(OC)CC3)c2)cc1` (single isomer, unassigned) [Example 145, N-((4-(3-(tert-butyl)-1,2,4-oxadiazol-5-yl)bicyclo[2.2.2]octan-1-yl)methyl)-N-(4′-ethoxy-[1,1′-biphenyl]-3-yl)-4-methoxycyclohexane-1-carboxamide] it is 0.303 µM. With `CCOc1ccc(-c2cccc(N(CC34CCC(c5nc(C(C)(C)C)no5)(CC3)CC4)C(=O)C3CCC(OC)CC3)c2)cc1` (single isomer, unassigned) [Example 146, N-((4-(3-(tert-butyl)-1,2,4-oxadiazol-5-yl)bicyclo[2.2.2]octan-1-yl)methyl)-N-(4′-ethoxy-[1,1′-biphenyl]-3-yl)-4-methoxycyclohexane-1-carboxamide] the figure was 0.402 µM; with `CCOc1ccc(-c2cc(N(CC34CCC(c5noc(C(C)(F)F)n5)(CC3)CC4)C(=O)C3CCC(O)(C(F)(F)F)CC3)ccc2F)cc1` (single isomer, unassigned) [Example 164, N-((4-(5-(1,1-difluoroethyl)-1,2,4-oxadiazol-3-yl)bicyclo[2.2.2]octan-1-yl)methyl)-N-(4′-ethoxy-6-fluoro-[1,1′-biphenyl]-3-yl)-4-hydroxy-4-(trifluoromethyl)cyclohexane-1-carboxamide], 0.271 µM.
